Columns and labels:
PDE4 enzyme = experiment: In vitro determination of PDE4 inhibitory activity in the cell free assay; format: biochemical, human; conditions: U937 cell supernatant, 1.6 μM cAMP, 30° C. for 30 minutes, cAMP disappearance
Description: The U937 human monocytic cell line was used as source of PDE4 enzyme. Cells were cultured, harvested and supernatant fraction prepared essentially as described in T. J. Torphy, et al., J. Pharmacol. Exp. Ther., 1992; 263:1195-1205.
PDE4 activity was determined in cells supernatants by assaying cAMP disappearance from the incubation mixtures. 50 μl of cell supernatant were incubated at 30° C. for 30 minutes in a final volume of 200 μl in the presence of 1.6 μM cAMP with or without the test compound (50 μl).
The concentration of the test compounds ranged between 10^−12 M and 10^−6 M.
Reactions were stopped by heat inactivation (2.5 minutes at 100° C.), and residual cAMP was measured using an electrochemiluminescence (ECL)-based immunoassay.
The results are expressed as mean±95% confidence limits of the molar concentration of the test compound producing 50% inhibition of cAMP disappearance (IC50).
Percentage of inhibition of PDE4 activity was calculated, assuming cAMP disappearance in the absence of inhibitors as 100% and cAMP disappearance in heat inactivated samples as 0%.

[1] = tested on: LPS-induced TNF-α release in peripheral blood mononuclear cells (PBMCs); experiment: In vitro determination of PDE4 inhibitory activity in the peripheral blood mononuclear cells (PBMCs) assay; format: cell-based; conditions: PBMC; human PBMCs, LPS (3 ng/ml), 18 hours, TNF-α by ELISA
Description: The assay, which is based on the known inhibitory activity exerted by PDE4 inhibitors on the lipopolysaccharides (LPS)-induced tumour necrosis factor-alpha (TNF-α release in peripheral blood mononuclear cells (PBMCs), was performed according to the method described by A. Hatzelmann, et al., J. Pharmacol. Exp. Ther., 2001; 297:267-279 and by R. Draheim, et al., J. Pharmacol. Exp. Ther., 2004; 308:555-563.
Cryopreserved human PBMCs, (100 μl/well) were incubated in 96-well plates (10^5 cells/well), for 30 minutes, in the presence or absence (50 microl) of the test compounds whose concentrations ranged from 10^−12 M to 10^−6 M. Subsequently, LPS (3 ng/ml) was added.
After 18 hours incubation at 37° C. in a humidified incubator under an atmosphere of 95% air and 5% CO2, culture medium was collected and TNF-α measured by ELISA. The results are expressed as mean±95% confidence limits of the molar concentration of the test compound producing 50% inhibition of LPS-induced TNF-α release (IC50).
The effects of the tested compounds were calculated as percent inhibition of TNF-α release, assuming LPS-induced TNF-α production in the absence of inhibitor compound as 100% and basal TNF-α production of PBMCs in the absence of LPS as 0%.

IC50 (PDE4 enzyme) [nM]	Structure (SMILES)	IC50 [1] [nM]
60	COc1ccc(N(Cc2ccc(S(C)(=O)=O)cc2)Cc2c(Cl)cncc2Cl)cc1OC [Compound C4, (3,5-Dichloro-pyridin-4-ylmethyl)-(3,4-dimethoxy-phenyl)-(4-methanesulfonyl-benzyl)-amine]	198
38	COc1ccc(N(Cc2ccc(S(N)(=O)=O)cc2)Cc2c(Cl)cncc2Cl)cc1OC [Compound C10, 4-{[(3,5-Dichloro-pyridin-4-ylmethyl)-(3,4-dimethoxy-phenyl)-amino]-methyl}-benzenesulfonamide]	38

Continued, compound first:

Structure (SMILES)	IC50 (PDE4 enzyme) [nM]	IC50 [1] [nM]
COc1ccc(N(Cc2ccc(F)cc2)Cc2c(Cl)cncc2Cl)cc1OC [Compound C1, (3,5-Dichloro-pyridin-4-ylmethyl)-(3,4-dimethoxy-phenyl)-(4-fluoro-benzyl)-amine]	81	661
COc1cccc(CN(Cc2c(Cl)cncc2Cl)c2ccc(OC)c(OC)c2)c1 [Compound C3, (3,5-Dichloro-pyridin-4-ylmethyl)-(3,4-dimethoxy-phenyl)-(3-methoxy-benzyl)-amine]	140	184
COc1ccc(N(Cc2ccco2)Cc2c(Cl)cncc2Cl)cc1OC [Compound C9, (3,5-Dichloro-pyridin-4-ylmethyl)-(3,4-dimethoxy-phenyl)-furan-2-ylmethyl-amine]		47.8
COc1ccc(CN(Cc2c(Cl)cncc2Cl)c2ccc(OC)c(OC)c2)cc1 [Compound C13, (3,5-Dichloro-pyridin-4-ylmethyl)-(3,4-dimethoxy-phenyl)-(4-methoxy-benzyl)-amine]	97.1	9.85
CCOc1cc(N(Cc2ccc(OC)cc2)Cc2c(Cl)cncc2Cl)ccc1OC [Compound C14, (3,5-Dichloro-pyridin-4-ylmethyl)-(3-ethoxy-4-methoxy-phenyl)-(4-methoxy-benzyl)-amine]	27	117
